Laboratory results: BindingDB's records for patent US12344597 (Idorsia Pharmaceuticals, 2025)

Biological target: Lysophosphatidic acid receptor 1 (Homo sapiens, UniProt Q92633)
Experiment: Beta-Arrestin Recruitment Assay
Text: The Tango™ EDG2-bla U2OS cells are obtained from Invitrogen. These cells contain the human LPA1 receptor cDNA linked to a TEV protease site and a Gal4-VP16 transcription factor integrated into the Tango™ GPCR-bla U2OS parental cell line. This parental cell line stably expresses a beta-arrestin/TEV protease fusion protein and the beta-lactamase (bla) reporter gene under the control of a UAS response element. Upon LPA (agonist) binding, LPA1 receptor gets activated, leading to arrestin-protease recruitment and proteolytic release of the transcription factor: The transcription factor then regulates transcription of a beta-lactamase reporter construct, which is measured upon addition of the live-cell substrate.10′000 Tango™ EDG2-bla U2OS cells are seeded in a 384-well black with clear bottom plate in 30 μl Freestyle 293 Expression Medium (Invitrogen) and incubated for 20 h at 37° C., 5% CO2. […] IC50 is the concentration of antagonist inhibiting 50% of the maximal response.

Chain of Lysophosphatidic acid receptor 1 (Q92633 whole entry): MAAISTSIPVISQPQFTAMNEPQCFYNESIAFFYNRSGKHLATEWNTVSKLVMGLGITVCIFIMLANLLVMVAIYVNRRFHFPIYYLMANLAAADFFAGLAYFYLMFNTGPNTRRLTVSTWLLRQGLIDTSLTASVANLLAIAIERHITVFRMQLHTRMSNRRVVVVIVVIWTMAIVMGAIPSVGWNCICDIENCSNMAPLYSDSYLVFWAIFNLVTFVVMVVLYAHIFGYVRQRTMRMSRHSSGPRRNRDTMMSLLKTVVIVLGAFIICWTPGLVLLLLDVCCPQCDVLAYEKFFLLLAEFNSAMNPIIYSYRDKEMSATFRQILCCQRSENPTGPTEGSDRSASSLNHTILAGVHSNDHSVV

`Cc1ccc(NC(=O)C2(c3ccccc3C(C)C)CN(CCC#N)C2)c(OC(F)F)n1` [US12344597, Example 11-16] was tested, and the IC50 was 4 nM.
